From a melting point compilation (Tetko et al.; mined from patent text by program, amines drawn as free bases though some values may be those of a salt)

SMILES | melting point [°C]
Cn1c(C(F)(F)F)cc(=O)n(-c2c(F)cc(Cl)c3ccoc23)c1=O | 127 to 128
Cc1cc(-c2noc(CS(C)(=O)=O)n2)ccc1Br | 130 to 132
C(=C(c1ccccc1)c1ccccc1)c1ccc2c(c1)Cc1ccccc1-2 | 136 to 138
COC(=O)c1cccc(-c2nc(COc3ccc(COc4nn(-c5ccccc5)cc4C=O)cc3)c(C)o2)c1 | 161 to 162
CCCCC(C(=O)N[C@H]1CN2CCC1CC2)c1ccccc1 (stereo not given in full) | 136
Oc1c(Br)cnc2ccccc12 | 286 to 287
Cc1cc(Cl)cc2c1OCCCC2NS(C)(=O)=O (stereo not given) | 154 to 156
CC1(C)NC(=O)N(CC(CS(=O)(=O)C2(C(F)(F)F)C=CC(c3ccccc3)=CC2)N(O)C=O)C1=O (stereo not given) | 206
O=C(Cn1ccnc1[N+](=O)[O-])NCC(F)(F)C(F)(F)F | 136 to 137
COc1cccc2c1C(=O)c1c(OC)cc(CBr)cc1C2=O | 176 to 178
NC1CCN(c2ccc([N+](=O)[O-])cn2)CC1 | 115 to 117
CCOC(=O)C(C)Sc1nc(-c2cc(C(C)(C)C)c(O)c(C(C)(C)C)c2)c[nH]1 (stereo not given) | 80 to 82
CC(=O)Oc1cc(C)cc(C(=O)O)c1C | 153 to 154
O=c1ccc(=O)c2c(=O)c3ccccc3c(=O)c1=2 | 211 to 213
Cc1cc(C(=O)NC2CC2)ccc1N1CCN(Cc2cnc3c(c2)NC(=O)[C@@H]2CCCN32)CC1 | 227 to 234
Cc1cc2cc(CN3CCCCCC3)cnc2cc1NC(=O)c1ccc(-c2cc3ccccc3o2)cc1 | 207

SMILES | melting point [°C]
N#Cc1c(-c2oc3ccccc3c2Cl)[nH]c(Cl)c1Cl | 258 to 260
NC1=NC(=O)N(CC2CC2)CC1Br (stereo not given) | 139 to 143
N#Cc1nn(-c2c(Cl)cc(-c3c(F)c(F)nc(F)c3F)cc2Cl)c(N)c1SC(F)(F)F | 100 to 104
Cc1ccc2c(Br)c(F)cc([N+](=O)[O-])c2n1 | 135 to 137
O=C(O)c1cn(-c2ccc(F)cc2F)c2cc(N3CCC4(C3)OCCCO4)c(F)cc2c1=O | 168 to 170
[N-]=[N+]=NCC1OC(n2c(Cl)c(C=O)c3cc(Cl)c(Cl)cc32)C(O)C1O (stereo not given) | 160 to 161
CON=C1c2c(Cl)cc(Cl)c(-n3c(=O)cc(C(F)(F)F)n(C)c3=O)c2OC1(C)C | 145 to 149
CCOc1ccc(F)cc1C(=O)c1sc2nc(C)c(C)cc2c1N | 170
CC(O)=C(C(=O)OCC(Cl)(Cl)Cl)N1C(=O)C(NC(=O)COc2ccccc2)C1SSc1nc2ccccc2s1 (stereo not given) | 129 to 130
CC1(C)OC(=O)C(Oc2ccccc2)=C1c1ccc(S(C)(=O)=O)cc1 | 135 to 136
N#Cc1[nH]n(-c2ccccc2)c(=O)c1N=Nc1cc(S(=O)(=O)Cl)ccc1Cl | 115 to 120
O=C(O)/C=C/C=C/C=C/C1=Cc2cc(C(F)(F)F)ccc2OC1 | 208 to 210
CC(C)(C)OC(=O)NC1C=Cc2ccccc2CC1 (stereo not given) | 146 to 148
CC(C)(C)c1nn(-c2ccc([N+](=O)[O-])cc2Cl)c(=O)o1 | 98
CC(C)n1nc(OCC(=O)c2ccc(F)cc2)c(-c2ccc(F)cc2)c1-c1ccc(S(C)(=O)=O)cc1 | 184 to 185
CC1CCN(c2cc(F)cc(C(=O)Nc3ccc(Oc4ccnc(N5CCOCC5)n4)c4ccccc34)c2)CC1 | 88 to 89

Next, values leading:

melting point [°C] | SMILES
101 to 112 | CN(CCC(Oc1ccc(C(=O)c2cc3ccccc3s2)cc1)c1ccc(Cl)cc1)CC(=O)O (stereo not given)
159 to 160 | Cc1c(CNCC(C)(C)C)[nH]c2c(F)c(NC(=O)c3ccc(OC[C@@H]4CCCO4)cc3)ccc12
67 | CCCC(Cn1cncn1)(OCC)c1ccc(Cl)cc1Cl (stereo not given)
204 to 206 | COCC(=O)Nc1ccc2ncnc(Nc3cc(Cl)c(Cl)cc3F)c2c1
114 | O=C(CCC(=O)N1CCCCC1c1ccccc1)c1ccc2c(c1)CCNCC2 (stereo not given)
134 to 135 | CCCOC1(OC)C=CC=C(N2CCC(c3noc4cc(F)ccc34)CC2)C1O (stereo not given)
179 to 181 | CCOc1ccc(OCC(C)(NS(=O)(=O)Cc2ccccc2)C(=O)N(C)OC)cc1 (stereo not given)
100 to 102 | CCCCCC(=N)NC(=S)Nc1ccc(Cl)cc1
208 | C#CCOc1ccc(S(=O)(=O)C2(C(=O)O)CCN(Cc3ccc(OC)cc3)CC2)cc1
168 to 172 | Fc1ccccc1-c1ccnc2ncnn12
102 to 104 | CS(=O)(=O)c1ccccc1[N+](=O)[O-]
185 to 186 | O=C(Nc1ccc([N+](=O)[O-])cc1)N[C@H]1C[C@H](C(=O)O)Nc2cc(Cl)cc(Cl)c21 (relative stereo)
60 to 63 | COc1cc(N)c(Cl)cc1C(=O)NCC1CCN(CCCCCN)CC1
177 to 178 | COCCOCCOCC(=O)Nc1c(I)c(N)c(I)c(C(=O)O)c1I
144 to 146 | CCCc1nc(C(C)(C)O)c(C(=O)OCOC(=O)OC(C)C)[nH]1
128 to 129 | CC(=O)NC(=O)CCc1ccc(OCCc2nc(-c3ccccc3)oc2C)cc1
141 to 144 | CCOC(=O)c1cc(NC(=O)C(CSC(C)=O)Cc2ccc(Cl)cc2)c[nH]1 (stereo not given)
205 | Oc1ccc2ccc(-c3ccccc3)cc2c1
182 to 186 | CC(=O)SCC(Cc1ccccc1)C(=O)Nc1cc(C)cc(C(=O)O)c1C (stereo not given)

melting point [°C] | SMILES
137 to 139 | CCOC(=O)C1=C(C)NC(C)=C(C(=O)OCCN)C1c1cccc([N+](=O)[O-])c1 (stereo not given)
79 to 85 | O=C(Cl)c1ccc(C#Cc2ccccc2C(=O)Cl)cc1
120 to 121 | CCOC(=O)C(C)Cc1ccnc(-c2nc(=O)c3ccccc3s2)c1 (stereo not given)
190 to 192 | COc1cc(NC(=O)Nc2ccccc2)cc(OC)n1
78 to 81 | CC(C)N(CC(=O)c1ccc(F)cc1)c1ccccc1
169 to 170 | CCOC(=O)C1=C(C)N2CCNC2=C(C(=O)OCC)C1c1cccc2ccccc12 (stereo not given)
159 to 160 | O=C(c1ccccc1)n1c(=O)c(C(F)(F)F)cn(C2CC(O)C(COCc3ccc(Cl)cc3)O2)c1=O (stereo not given)
83 to 84 | COC(=O)C(Oc1ccc(C(F)(F)F)cc1)c1ccc(OCCCOc2ccc(Cl)cc2)cc1 (stereo not given)
183 to 186 | CON=C(CCC(=O)O)c1ccc(-c2ccc(Cl)cc2)cc1
130 | Oc1ccc2c(c1)SCCc1c-2n(CCCCCN2CCCCC2)c2ccccc12
259 | NC(=O)c1ccc(-c2nn(Cc3ccccc3)c3ccccc23)o1
144 to 146 | CCCCc1nnc2c(Cl)nc3ccccc3n12
260 to 263 | COc1ccc(-c2nc3cccnc3n2CC(=O)O)cc1
171 to 172 | CSC(Oc1cc(I)c2ncc(Br)cc2c1)C(=O)NC(C)(C)C (stereo not given)
216 | Oc1ccc(CCN2CCC(Cc3nc4c(O)ncnc4n3Cc3ccc(F)cc3)CC2)cc1
78 to 80 | CCCCCCCCCCCCCCCCCC(=O)CO
258 to 260 | CNC(=NCCCc1nc2cc(C3=NNC(=O)CC3C)ccc2[nH]1)NS(=O)(=O)c1ccccc1 (stereo not given)
205 to 208 | Cc1cc(C)cc(CCCn2c(=O)[nH]c3cc(Cl)cc(Cl)c3c2=O)c1
104 to 106 | CCc1ccc2c(=O)c(CSC)cn(C)c2c1
